Laboratory results published in US8263606B2 (Xenon Pharmaceuticals Inc., priority 2008, dated 2012).

Columns and labels:
CYP3A4 = CYP3A4 (Homo sapiens, UniProt P08684); assay: Cytochrome P450 (CYP450) Inhibition Assay, CYP3A4 (Vivid fluorescence, BOMCC substrate); conditions: human, P450 Baculosomes (recombinant CYP3A4), probe BOMCC (Vivid substrate)
Chain of CYP3A4 (P08684 whole entry): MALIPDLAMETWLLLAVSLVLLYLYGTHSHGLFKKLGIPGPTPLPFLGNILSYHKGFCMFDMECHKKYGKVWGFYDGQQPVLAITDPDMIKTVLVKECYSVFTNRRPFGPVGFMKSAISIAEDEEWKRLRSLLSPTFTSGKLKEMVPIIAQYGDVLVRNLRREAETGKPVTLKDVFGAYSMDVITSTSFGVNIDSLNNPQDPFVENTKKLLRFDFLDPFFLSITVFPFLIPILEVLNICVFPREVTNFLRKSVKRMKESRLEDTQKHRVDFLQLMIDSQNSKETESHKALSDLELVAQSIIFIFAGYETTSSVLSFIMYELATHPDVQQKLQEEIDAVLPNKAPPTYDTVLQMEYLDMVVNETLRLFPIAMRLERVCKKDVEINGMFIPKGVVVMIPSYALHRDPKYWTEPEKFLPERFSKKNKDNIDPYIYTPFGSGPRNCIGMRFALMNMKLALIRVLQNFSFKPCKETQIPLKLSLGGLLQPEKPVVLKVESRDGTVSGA

Row | melting point [°C] | inhibition at 10 µM (CYP3A4) [%] | Compound
1 | 266 to 268 | < 50 | CN1C(=O)C2(COc3cc4c(cc32)OCCO4)c2c(NC(=O)C3CC3)cccc21 (stereo not shown) [Example 16.26, N-(1′-methyl-2′-oxo-1′,2,2′,3-tetrahydrospiro[furo[2,3-g][1,4]benzodioxine-8,3′-indol]-4′-yl)cyclopropanecarboxamide]
2 | 192 to 194 | > 50 | CN1C(=O)C2(COc3cc4c(cc32)OCCO4)c2c(NC(=O)c3ccccc3)cccc21 (stereo not shown) [Example 16.27, N-(1′-methyl-2′-oxo-1′,2,2′,3-tetrahydrospiro[furo[2,3-g][1,4]benzodioxine-8,3′-indol]-4′-yl)benzamide]
3 | 237 to 239 | < 50 | COCC(=O)Nc1cccc2c1C1(COc3cc4c(cc31)OCCO4)C(=O)N2C (stereo not shown) [Example 16.28, 2-methoxy-N-(1′-methyl-2′-oxo-1′,2,2′,3-tetrahydrospiro[furo[2,3-g][1,4]benzodioxine-8,3′-indol]-4′-yl)acetamide]
4 | 224 to 226 | < 50 | CCC(=O)Nc1cccc2c1C1(COc3cc4c(cc31)OCCO4)C(=O)N2C (stereo not shown) [Example 16.29, N-(1′-methyl-2′-oxo-1′,2,2′,3-tetrahydrospiro[furo[2,3-g][1,4]benzodioxine-8,3′-indol]-4′-yl)propanamide]
5 | 182 to 183 | < 50 | CCCCC(=O)Nc1cccc2c1C1(COc3cc4c(cc31)OCCO4)C(=O)N2C (stereo not shown) [Example 16.30, N-(1′-methyl-2′-oxo-1′,2,2′,3-tetrahydrospiro[furo[2,3-g][1,4]benzodioxine-8,3′-indol]-4′-yl)pentanamide]
6 | 182 to 184 | < 50 | CN1C(=O)C2(COc3cc4c(cc32)OCCO4)c2c(NC(=O)C(C)(C)C)cccc21 (stereo not shown) [Example 16.31, 2,2-dimethyl-N-(1′-methyl-2′-oxo-1′,2,2′,3-tetrahydrospiro[furo[2,3-g][1,4]benzodioxine-8,3′-indol]-4′-yl)propanamide]
7 | 151 to 153 | < 50 | CCCCCC(=O)Nc1cccc2c1C1(COc3cc4c(cc31)OCCO4)C(=O)N2C (stereo not shown) [Example 16.32, N-(1′-methyl-2′-oxo-1′,2,2′,3-tetrahydrospiro[furo[2,3-g][1,4]benzodioxine-8,3′-indol]-4′-yl)hexanamide]
8 | 123 to 124 | > 50 | CCCCCCC(=O)Nc1cccc2c1C1(COc3cc4c(cc31)OCCO4)C(=O)N2C (stereo not shown) [Example 16.33, N-(1′-methyl-2′-oxo-1′,2,2′,3-tetrahydrospiro[furo[2,3-g][1,4]benzodioxine-8,3′-indol]-4′-yl)heptanamide]
9 | 122 to 123 | < 50 | COCCOCC(=O)Nc1cccc2c1C1(COc3cc4c(cc31)OCCO4)C(=O)N2C (stereo not shown) [Example 16.34, 2-(2-methoxyethoxy)-N-(1′-methyl-2′-oxo-1′,2,2′,3-tetrahydrospiro[furo[2,3-g][1,4]benzodioxine-8,3′-indol]-4′-yl)acetamide]
10 | 154 to 155 | > 50 | CCCCCCNC(=O)Nc1cccc2c1C1(COc3cc4c(cc31)OCCO4)C(=O)N2C (stereo not shown) [Example 16.35, 1-hexyl-3-(1′-methyl-2′-oxo-1′,2,2′,3-tetrahydrospiro[furo[2,3-g][1,4]benzodioxine-8,3′-indol]-4′-yl)urea]
11 | 133 to 135 | < 50 | CN1C(=O)C2(COc3cc4c(cc32)OCCO4)c2c(NC(=O)NC3CCCC3)cccc21 (stereo not shown) [Example 16.36, 1-cyclopentyl-3-(1′-methyl-2′-oxo-1′,2,2′,3-tetrahydrospiro[furo[2,3-g][1,4]benzodioxine-8,3′-indol]-4′-yl)urea]
12 | 175 to 177 | < 50 | CN1C(=O)C2(COc3cc4c(cc32)OCCO4)c2c(NC(=O)NC3CCCCC3)cccc21 (stereo not shown) [Example 16.37, 1-cyclohexyl-3-(1′-methyl-2′-oxo-1′,2,2′,3-tetrahydrospiro[furo[2,3-g][1,4]benzodioxine-8,3′-indol]-4′-yl)urea]
13 | 139 to 140 | < 50 | CN1C(=O)C2(COc3cc4c(cc32)OCCO4)c2c(C(=O)NC3CCCCC3)cccc21 (stereo not shown) [Example 16.38, N-cyclohexyl-1′-methyl-2′-oxo-1′,2,2′,3-tetrahydrospiro[furo[2,3-g][1,4]benzodioxine-8,3′-indole]-4′-carboxamide]
14 | 135 to 136 | < 50 | CN1C(=O)C2(COc3cc4c(cc32)OCCO4)c2c(C(=O)NC3CCCC3)cccc21 (stereo not shown) [Example 16.39, N-cyclopentyl-1′-methyl-2′-oxo-1′,2,2′,3-tetrahydrospiro[furo[2,3-g][1,4]benzodioxine-8,3′-indole]-4′-carboxamide]
15 | 242 to 244 | < 50 | CN1C(=O)C2(COc3cc4c(cc32)OCCO4)c2c(C(=O)N3CCCC3)cccc21 (stereo not shown) [Example 16.41, 1′-methyl-4′-(pyrrolidin-1-ylcarbonyl)-2,3-dihydrospiro[furo[2,3-g][1,4]benzodioxine-8,3′-indol]-2′(1′H)-one]
16 | 191 to 193 | < 50 | CCCCCNC(=O)c1cccc2c1C1(COc3cc4c(cc31)OCCO4)C(=O)N2C (stereo not shown) [Example 16.42, 1′-methyl-2′-oxo-N-pentyl-1′,2,2′,3-tetrahydrospiro[furo[2,3-g][1,4]benzodioxine-8,3′-indole]-4′-carboxamide]
17 | 97 to 100 | < 50 | COCCNC(=O)c1cccc2c1C1(COc3cc4c(cc31)OCCO4)C(=O)N2C (stereo not shown) [Example 16.43, N-(2-methoxyethyl)-1′-methyl-2′-oxo-1′,2,2′,3-tetrahydrospiro[furo[2,3-g][1,4]benzodioxine-8,3′-indole]-4′-carboxamide]
18 | 149 to 150 | < 50 | CN1C(=O)C2(COc3cc4c(cc32)OCCO4)c2c(C(=O)NCc3ccc(F)cc3)cccc21 (stereo not shown) [Example 16.44, N-(4-fluorobenzyl)-1′-methyl-2′-oxo-1′,2,2′,3-tetrahydrospiro[furo[2,3-g][1,4]benzodioxine-8,3′-indole]-4′-carboxamide]
19 | 172 to 173 | > 50 | CCCCCCNC(=O)c1cccc2c1C1(COc3cc4c(cc31)OCCO4)C(=O)N2C (stereo not shown) [Example 16.45, N-hexyl-1′-methyl-2′-oxo-1′,2,2′,3-tetrahydrospiro[furo[2,3-g][1,4]benzodioxine-8,3′-indole]-4′-carboxamide]
20 | 214 to 215 | < 50 | CN1C(=O)C2(COc3cc4c(cc32)OCCO4)c2c(C(=O)NCc3ccccn3)cccc21 (stereo not shown) [Example 16.46, 1′-methyl-2′-oxo-N-(pyridin-2-ylmethyl)-1′,2,2′,3-tetrahydrospiro[furo[2,3-g][1,4]benzodioxine-8,3′-indole]-4′-carboxamide]
21 | > 250 | < 50 | CN1C(=O)C2(COc3cc4c(cc32)OCCO4)c2c(C(=O)Nc3ccc(F)cc3)cccc21 (stereo not shown) [Example 16.47, N-(4-fluorophenyl)-1′-methyl-2′-oxo-1′,2,2′,3-tetrahydrospiro[furo[2,3-g][1,4]benzodioxine-8,3′-indole]-4′-carboxamide]
22 | 243 to 245 | < 50 | Nc1cccc2c1C1(COc3cc4c(cc31)OCCO4)C(=O)N2Cc1ncccc1C(F)(F)F (stereo not shown) [Example 16.50, 4′-amino-1′-{[3-(trifluoromethyl)pyridin-2-yl]methyl}-2,3-dihydrospiro[furo[2,3-g][1,4]benzodioxine-8,3′-indol]-2′(1′H)-one]
23 | > 250 | < 50 | O=C1Nc2cccc(O)c2C12COc1cc3c(cc12)OCCO3 (stereo not shown) [Example 16.51, 4′-hydroxy-2,3-dihydrospiro[furo[2,3-g][1,4]benzodioxine-8,3′-indol]-2′(1′H)-one]
24 | > 250 | < 50 | CN1C(=O)C2(COc3cc4c(cc32)OCCO4)c2c(O)cccc21 (stereo not shown) [Example 16.52, 4′-hydroxy-1′-methyl-2,3-dihydrospiro[furo[2,3-g][1,4]benzodioxine-8,3′-indol]-2′(1′H)-one]
25 | 219 to 221 | > 50 | CN1C(=O)C2(COc3cc4c(cc32)OCCO4)c2c(Oc3ccccn3)cccc21 (stereo not shown) [Example 16.53, 1′-methyl-4′-(pyridin-2-yloxy)-2,3-dihydrospiro[furo[2,3-g][1,4]benzodioxine-8,3′-indol]-2′(1′H)-one]
26 | 109 to 110 | < 50 | COCCOCCOc1cccc2c1C1(COc3cc4c(cc31)OCCO4)C(=O)N2C (stereo not shown) [Example 16.54, 4′-[2-(2-methoxyethoxy)ethoxy]-1′-methyl-2,3-dihydrospiro[furo[2,3-g][1,4]benzodioxine-8,3′-indol]-2′(1′H)-one]
27 | > 250 | > 50 | CN1C(=O)C2(COc3cc4c(cc32)OCCO4)c2c(Oc3ncccc3C(F)(F)F)cccc21 (stereo not shown) [Example 16.55, 1′-methyl-4′-{[3-(trifluoromethyl)pyridin-2-yl]oxy}-2,3-dihydrospiro[furo[2,3-g][1,4]benzodioxine-8,3′-indol]-2′(1′H)-one]
28 | 198 to 201 | > 50 | CN1C(=O)C2(COc3cc4c(cc32)OCCO4)c2c(Oc3ccc(C(F)(F)F)cc3)cccc21 (stereo not shown) [Example 16.56, 1′-methyl-4′-[4-(trifluoromethyl)phenoxy]-2,3-dihydrospiro[furo[2,3-g][1,4]benzodioxine-8,3′-indol]-2′(1′H)-one]
29 | 198 to 200 | > 50 | CN1C(=O)C2(COc3cc4c(cc32)OCCO4)c2c(OCc3ccccc3)cccc21 (stereo not shown) [Example 16.57, 4′-(benzyloxy)-1′-methyl-2,3-dihydrospiro[furo[2,3-g][1,4]benzodioxine-8,3′-indol]-2′(1′H)-one]
